In publication PMC6336890 (Scientific Reports, 2019) one finds IC50 data, which are given here for 1 molecule.

For the test, the target named is PARP1 (Homo sapiens, UniProt P09874). Nature of the test: in vitro PARP1 activity ELISA, recombinant enzyme. The test is classed as biochemical. On the technique in general: In an ELISA, binding on a coated surface is turned into a signal by an enzyme label.

Molecules are shown by their SMILES.

What is called IC50 is the concentration that gives 50% inhibition.

Chain of PARP1 (P09874 2-1014): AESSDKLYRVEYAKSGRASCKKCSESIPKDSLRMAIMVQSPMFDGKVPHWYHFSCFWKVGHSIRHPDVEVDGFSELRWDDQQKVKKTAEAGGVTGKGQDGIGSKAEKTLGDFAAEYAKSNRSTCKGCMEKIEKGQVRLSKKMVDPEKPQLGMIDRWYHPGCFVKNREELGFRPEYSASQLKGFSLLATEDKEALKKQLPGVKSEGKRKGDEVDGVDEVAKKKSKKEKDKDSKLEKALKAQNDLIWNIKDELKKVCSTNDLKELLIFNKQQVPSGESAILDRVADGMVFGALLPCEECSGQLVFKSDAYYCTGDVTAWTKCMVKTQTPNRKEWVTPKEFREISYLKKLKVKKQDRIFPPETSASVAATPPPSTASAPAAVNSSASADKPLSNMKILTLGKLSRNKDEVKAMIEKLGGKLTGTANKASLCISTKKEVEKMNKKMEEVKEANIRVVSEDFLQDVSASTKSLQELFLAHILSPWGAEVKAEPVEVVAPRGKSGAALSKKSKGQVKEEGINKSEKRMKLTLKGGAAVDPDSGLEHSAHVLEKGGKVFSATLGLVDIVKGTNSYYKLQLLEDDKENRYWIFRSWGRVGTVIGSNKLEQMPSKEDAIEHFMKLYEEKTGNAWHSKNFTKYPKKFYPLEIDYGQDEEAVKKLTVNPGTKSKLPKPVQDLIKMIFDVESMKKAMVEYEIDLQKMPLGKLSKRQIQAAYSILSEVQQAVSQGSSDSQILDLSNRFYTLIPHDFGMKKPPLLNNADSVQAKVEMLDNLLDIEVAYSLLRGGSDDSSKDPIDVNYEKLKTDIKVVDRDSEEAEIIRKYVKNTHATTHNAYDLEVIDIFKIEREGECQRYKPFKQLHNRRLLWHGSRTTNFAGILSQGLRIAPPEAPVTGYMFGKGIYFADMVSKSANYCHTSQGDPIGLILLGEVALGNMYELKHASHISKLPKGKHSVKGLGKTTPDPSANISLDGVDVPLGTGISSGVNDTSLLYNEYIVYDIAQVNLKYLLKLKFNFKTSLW

For the molecule `Cc1ccc2c(=O)[nH]c(-c3ccc(C(C)(C)O)cc3)cn12` [MSC2504877], the half-maximal inhibitory concentration (IC50) worked out at 540 nM.
